Several values for one entry are separate records, joined by “and”; a condition that tells them apart may be missing. Equal entries are not always repeated. Toxic doses and inconclusive results are not listed. Rule for the calls: active = survival T/C of 150% or more; inactive = T/C below 125% in these data.
System: CD2F1 mice, L1210 leukemia ip, survival T/C
Assay: NCI In Vivo Anticancer Drug Screen. Data for tumor model L1210 Leukemia (intraperitoneal) in CD2F1 (CDF1) mice
Settings: higher = longer survival
Method in brief: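 Read-out first: treated-group measurement over vehicle-control measurement, expressed as a ratio. Animals bore a transplanted tumor line and were dosed with compound or vehicle.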

[1] = endpoint: mean survival time, dose: 100.0 mg/kg/injection, schedule: Q01DX009 (ip), vehicle: saline with Tween-80
[2] = endpoint: mean survival time, dose: 100.0 mg/kg/injection, schedule: Q04DX003 (ip), vehicle: saline with Tween-80
[3] = endpoint: mean survival time, dose: 200.0 mg/kg/injection, schedule: Q01DX009 (ip), vehicle: saline with Tween-80
[4] = endpoint: mean survival time, dose: 200.0 mg/kg/injection, schedule: Q04DX003 (ip), vehicle: saline with Tween-80
[5] = endpoint: mean survival time, dose: 400.0 mg/kg/injection, schedule: Q01DX009 (ip), vehicle: saline with Tween-80
[6] = endpoint: mean survival time, dose: 400.0 mg/kg/injection, schedule: Q04DX003 (ip), vehicle: saline with Tween-80
[7] = endpoint: mean survival time, dose: 50.0 mg/kg/injection, schedule: Q04DX003 (ip), vehicle: Klucel (hydroxypropylcellulose) (HPC)
[8] = endpoint: mean survival time, dose: 100.0 mg/kg/injection, schedule: Q04DX003 (ip), vehicle: Klucel (hydroxypropylcellulose) (HPC)
[9] = endpoint: mean survival time, dose: 200.0 mg/kg/injection, schedule: Q04DX003 (ip), vehicle: Klucel (hydroxypropylcellulose) (HPC)
[10] = endpoint: mean survival time, dose: 100.0 mg/kg/injection, schedule: Q01DX001 (ip), vehicle: saline with Tween-80
[11] = endpoint: mean survival time, dose: 50.0 mg/kg/injection, schedule: Q01DX009 (ip), vehicle: saline with Tween-80
[12] = endpoint: mean survival time, dose: 100.0 mg/kg/injection, schedule: Q04DX002 (ip), vehicle: saline with Tween-80
[13] = endpoint: mean survival time, dose: 200.0 mg/kg/injection, schedule: Q04DX002 (ip), vehicle: saline with Tween-80
[14] = endpoint: mean survival time, dose: 400.0 mg/kg/injection, schedule: Q04DX002 (ip), vehicle: saline with Tween-80
[15] = endpoint: mean survival time, dose: 50.0 mg/kg/injection, schedule: Q04DX003 (ip), vehicle: saline with Tween-80
[16] = endpoint: median survival time, dose: 50.0 mg/kg/injection, schedule: Q01DX005 (ip), vehicle: saline with Tween-80
[17] = endpoint: median survival time, dose: 100.0 mg/kg/injection, schedule: Q01DX005 (ip), vehicle: saline with Tween-80
[18] = endpoint: mean survival time, dose: 200.0 mg/kg/injection, schedule: Q01DX001 (ip), vehicle: saline with Tween-80
[19] = endpoint: mean survival time, dose: 400.0 mg/kg/injection, schedule: Q01DX001 (ip), vehicle: saline with Tween-80

Measured: T/C

CCOC(=O)/C(C#N)=C1\CCc2cc(OC)ccc21
inactive: [1] 92 % of control | [2] 103 % of control | [3] 93 % of control | [4] 92 % of control | [5] 92 % of control | [6] 98 % of control

CCOC(=O)c1c(-c2ccccc2)csc1NC(=O)CBr
inactive: endpoint: mean survival time, dose: 75.0 mg/kg/injection, schedule: Q01DX001 (ip), vehicle: saline 106 % of control | endpoint: mean survival time, dose: 150.0 mg/kg/injection, schedule: Q01DX001 (ip), vehicle: saline 101 % of control | endpoint: mean survival time, dose: 300.0 mg/kg/injection, schedule: Q01DX001 (ip), vehicle: saline 98 % of control

N#CC(O)Cc1ccccc1 (stereo not given)
inactive: endpoint: mean survival time, dose: 5.0 mg/kg/injection, schedule: Q04DX003 (ip), vehicle: saline 98 % of control | endpoint: mean survival time, dose: 10.0 mg/kg/injection, schedule: Q04DX003 (ip), vehicle: saline 98 % of control

O=C(CC(c1ccccc1)C(C(=O)O)C(=O)O)c1ccccc1 (stereo not given)
inactive: endpoint: mean survival time, dose: 100.0 mg/kg/injection, schedule: Q04DX002 (ip), vehicle: other 97 % of control | endpoint: mean survival time, dose: 200.0 mg/kg/injection, schedule: Q04DX002 (ip), vehicle: other 101 % of control | endpoint: mean survival time, dose: 400.0 mg/kg/injection, schedule: Q04DX002 (ip), vehicle: other 104 % of control

O=C1NC(=O)C(c2ccccc2)(C2CCCC2)N1 (stereo not given)
inactive: [7] 104 % of control | [8] 98 % of control | [9] 95 % of control

Cc1cccc(C)c1OC(=O)Cl
inactive: endpoint: mean survival time, dose: 5.0 mg/kg/injection, schedule: Q01DX001 (ip), vehicle: saline 98 % of control | endpoint: mean survival time, dose: 10.0 mg/kg/injection, schedule: Q01DX001 (ip), vehicle: saline 97 % of control | endpoint: mean survival time, dose: 20.0 mg/kg/injection, schedule: Q01DX001 (ip), vehicle: saline 97 % of control | endpoint: mean survival time, dose: 40.0 mg/kg/injection, schedule: Q01DX001 (ip), vehicle: saline 97 % of control

Cc1ccc(S(=O)(=O)N(CCCc2c(C)nc(N)nc2Nc2ccccc2)c2ccccc2)cc1
inactive: [10] 92 % of control

CCCCCCCCCCCCCCCC(=O)N(CCCN)CCCN(CCCN)C(=O)CCCCCCCCCCCCCCC
inactive: endpoint: mean survival time, dose: 25.0 mg/kg/injection, schedule: Q01DX009 (ip), vehicle: saline with Tween-80 97 % of control | [11] 89 % of control

OCCNc1c(Cl)ccc(Cl)c1Cl
inactive: [11] 107 % of control | [1] 103 % of control | [3] 98 % of control

CCc1ccc(C(=O)CCC(=O)O)cc1
inactive: [12] 98 % of control | [13] 95 % of control | [14] 102 % of control

CCN(CC)CC(C)(C)CO
inactive: [11] 104 % of control | [1] 95 % of control | [2] 92 % of control | [3] 98 % of control | [4] 97 % of control

CCc1ncc(CO)n1Cc1ccccc1
inactive: [1] 100 % of control

CC1(C)CC(=O)C=C(N)C1
inactive: [1] 100 % of control | [3] 97 % of control | [5] 108 % of control

CCCC(=O)Nc1ncnc2c1[nH]c(=O)n2C1OC2COP(=O)(O)OC2C1OC(=O)CCC (stereo not given)
inactive: endpoint: mean survival time, dose: 6.25 mg/kg/injection, schedule: Q01DX005 (ip), vehicle: water 97 % of control | endpoint: mean survival time, dose: 12.5 mg/kg/injection, schedule: Q01DX005 (ip), vehicle: water 93 % of control | endpoint: mean survival time, dose: 25.0 mg/kg/injection, schedule: Q01DX005 (ip), vehicle: water 97 % of control | endpoint: mean survival time, dose: 50.0 mg/kg/injection, schedule: Q01DX005 (ip), vehicle: water 97 % of control | endpoint: mean survival time, dose: 100.0 mg/kg/injection, schedule: Q01DX005 (ip), vehicle: water 89 % of control

CCOC1(c2ccccc2)c2ccccc2C(C)(C)c2ccccc21
inactive: [2] 92 % of control | [6] 92 % of control

ClCCN(CCCl)c1ccc(CNCCCNCc2ccc(N(CCCl)CCCl)cc2)cc1
inactive: endpoint: mean survival time, dose: 1.25 mg/kg/injection, schedule: Q01DX009 (ip), vehicle: saline sonified 118 % of control | endpoint: mean survival time, dose: 2.5 mg/kg/injection, schedule: Q01DX009 (ip), vehicle: saline sonified 118 % of control | endpoint: mean survival time, dose: 3.3 mg/kg/injection, schedule: Q01DX009 (ip), vehicle: saline sonified 117 % of control | endpoint: mean survival time, dose: 5.0 mg/kg/injection, schedule: Q01DX009 (ip), vehicle: saline sonified 117 % of control | endpoint: mean survival time, dose: 7.5 mg/kg/injection, schedule: Q01DX009 (ip), vehicle: saline sonified 121 % of control | endpoint: mean survival time, dose: 10.0 mg/kg/injection, schedule: Q04DX003 (ip), vehicle: saline with Tween-80 120 % of control | endpoint: mean survival time, dose: 20.0 mg/kg/injection, schedule: Q04DX003 (ip), vehicle: saline with Tween-80 121 % of control | endpoint: mean survival time, dose: 40.0 mg/kg/injection, schedule: Q04DX003 (ip), vehicle: saline with Tween-80 120 % of control

CC(C)N(CCN(C)C(=O)C(O)(c1ccccc1)c1ccccc1)C(C)C
inactive: [15] 101 % of control | [2] 93 % of control and 98 % of control | [4] 104 % of control

CC(C)(C)c1ccc(C(=O)N2CCOC23CCCCC3)cc1
inactive: [16] 101 % of control and 104 % of control | [17] 96 % of control and 104 % of control | endpoint: median survival time, dose: 200.0 mg/kg/injection, schedule: Q01DX005 (ip), vehicle: saline with Tween-80 98 % of control and 101 % of control | endpoint: median survival time, dose: 400.0 mg/kg/injection, schedule: Q01DX005 (ip), vehicle: saline with Tween-80 100 % of control | endpoint: median survival time, dose: 800.0 mg/kg/injection, schedule: Q01DX005 (ip), vehicle: saline with Tween-80 96 % of control and 101 % of control

COC(=O)CC1(C(=O)OC)NC(=O)c2cc(OC)c(Cl)cc2N1 (stereo not given)
inactive: [10] 88 % of control | [12] 96 % of control | [18] 94 % of control | [13] 96 % of control | [19] 95 % of control | [14] 86 % of control

CN(CC[NH-])CC[NH-].[I][Pt]
inactive: endpoint: mean survival time, dose: 12.5 mg/kg/injection, schedule: Q04DX003 (ip), vehicle: saline with Tween-80 100 % of control | endpoint: mean survival time, dose: 25.0 mg/kg/injection, schedule: Q04DX003 (ip), vehicle: saline with Tween-80 94 % of control | [15] 98 % of control | [2] 100 % of control | [4] 94 % of control

c1ccc2c(CN3CC3)c[nH]c2c1
inactive: endpoint: mean survival time, dose: 22.0 mg/kg/injection, schedule: Q01DX009 (ip), vehicle: other 101 % of control | endpoint: mean survival time, dose: 25.0 mg/kg/injection, schedule: Q01DX009 (ip), vehicle: other 109 % of control | endpoint: mean survival time, dose: 33.0 mg/kg/injection, schedule: Q01DX009 (ip), vehicle: other 103 % of control | [1] 114 % of control | [3] 112 % of control

O=C(c1ccccc1)c1ccc2cc(O)ccc2c1
inactive: [10] 102 % of control | [12] 94 % of control | [18] 92 % of control | [13] 90 % of control | [19] 96 % of control | [14] 86 % of control

NNC(=O)CNc1cccc(Br)c1
inactive: endpoint: mean survival time, dose: 12.5 mg/kg/injection, schedule: Q01DX009 (ip), vehicle: Klucel (hydroxypropylcellulose) (HPC) 98 % of control | endpoint: mean survival time, dose: 25.0 mg/kg/injection, schedule: Q01DX009 (ip), vehicle: Klucel (hydroxypropylcellulose) (HPC) 101 % of control | endpoint: mean survival time, dose: 50.0 mg/kg/injection, schedule: Q01DX009 (ip), vehicle: Klucel (hydroxypropylcellulose) (HPC) 101 % of control | [7] 101 % of control | endpoint: mean survival time, dose: 100.0 mg/kg/injection, schedule: Q01DX001 (ip), vehicle: Klucel (hydroxypropylcellulose) (HPC) 102 % of control | endpoint: mean survival time, dose: 100.0 mg/kg/injection, schedule: Q01DX009 (ip), vehicle: Klucel (hydroxypropylcellulose) (HPC) 97 % of control | [8] 98 % of control | endpoint: mean survival time, dose: 200.0 mg/kg/injection, schedule: Q01DX001 (ip), vehicle: Klucel (hydroxypropylcellulose) (HPC) 98 % of control | [9] 111 % of control

Cc1cccc(OCC(O)CN2CC2)c1 (stereo not given)
inactive: endpoint: median survival time, dose: 12.5 mg/kg/injection, schedule: Q01DX005 (ip), vehicle: saline with Tween-80 97 % of control and 107 % of control | endpoint: median survival time, dose: 25.0 mg/kg/injection, schedule: Q01DX005 (ip), vehicle: saline with Tween-80 115 % of control and 111 % of control | endpoint: median survival time, dose: 36.0 mg/kg/injection, schedule: Q01DX005 (ip), vehicle: saline with Tween-80 104 % of control | [16] 113 % of control and 108 % of control | endpoint: median survival time, dose: 60.0 mg/kg/injection, schedule: Q01DX005 (ip), vehicle: saline with Tween-80 113 % of control | [17] 106 % of control | endpoint: median survival time, dose: 166.66 mg/kg/injection, schedule: Q01DX005 (ip), vehicle: saline with Tween-80 110 % of control

Source: PubChem BioAssay AID256 (DTP/NCI, 2004)
